Data on 12 compounds can be found in ChEMBL document CHEMBL1201862, “PubChem BioAssay data set” (2004).

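Cells were grown in 96-well plates and exposed to each compound for 48 hours at five concentrations; endpoints were interpolated linearly between bracketing concentrations, or set to the highest concentration if not reached. Abbreviation: GI50, concentration required for 50% inhibition of growth.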 Calls of active or inactive are those of the source. No stated cut-off is given here; in the data, active = GI50 up to about 1.1 µM and inactive = higher.

Test systems include CAKI-1; UACC-257; EKVX; OVCAR-4; SW-620; DU-145; A549; RPMI-8226; IGROV-1; HOP-92; OVCAR-3; CCRF-CEM; HT-29; SR; MDA-MB-231; PC-3; SF-295; TK-10.
Common to all, as to test: NCI anticancer screen, dose series, 48 h

In the case of `NC(CCC(=O)NC(CSC(=O)N(O)c1ccc(Cl)cc1)C(=O)NCC(=O)O)C(=O)O` (configuration not stated), the GI50 in the experiment on CAKI-1, in the experiment on UACC-257, in the experiment with EKVX, with OVCAR-4, with SW-620 and with DU-145 was > 0.5 µM (active) each time. The GI50 with A549, with RPMI-8226, in the experiment on IGROV-1, in the experiment on HOP-92, in the experiment with OVCAR-3 and in the experiment on CCRF-CEM was > 0.5 µM (active) each time. The GI50 in the experiment with HT-29, in the experiment on SR, in the experiment on MDA-MB-231, in the experiment with PC-3 and in the experiment on SF-295 was > 0.5 µM (active) each time.

As to `Cc1cc(Cl)ccc1NC(=O)C(=O)Cc1ccc([N+](=O)[O-])c([N+](=O)[O-])c1CC(=O)C(=O)Nc1ccc(Cl)cc1C`, the GI50 in the experiment on CAKI-1, in the experiment on UACC-257, in the experiment on EKVX, in the experiment on OVCAR-4, in the experiment with SW-620 and in the experiment on A549 was > 100 µM (inactive) each time. Besides, the GI50 is > 100 µM (inactive) with RPMI-8226; > 100 µM (inactive) with IGROV-1; > 100 µM (inactive) with TK-10; 82 µM (inactive) with HOP-92; 70.3 µM (inactive) in the experiment with OVCAR-3; 78.7 µM (inactive) with CCRF-CEM. Moreover, the GI50 in the experiment on HT-29 is > 100 µM (inactive); in the experiment with SR, 42.1 µM (inactive); in the experiment with SF-295, > 100 µM (inactive).

`C=C(C)CCN[Si](c1ccccc1)(c1ccccc1)C(C)(C)C`: the GI50 in the experiment with UACC-257 is 15.7 µM (inactive); in the experiment with EKVX, 22.1 µM (inactive); in the experiment with OVCAR-4 it was 19 µM (inactive); in the experiment with SW-620 it was 40 µM (inactive); in the experiment on A549, 24.1 µM (inactive); in the experiment on RPMI-8226 it was 24 µM (inactive). The GI50 in the experiment with IGROV-1 is 27.1 µM (inactive); in the experiment on TK-10, 22.5 µM (inactive); in the experiment with HOP-92, 18.2 µM (inactive); in the experiment with OVCAR-3, 17.6 µM (inactive); with CCRF-CEM, 25.8 µM (inactive); in the experiment on HT-29, 16.6 µM (inactive). The GI50 with SF-295 is 19.3 µM (inactive).

For `CC(Cn1c(=O)oc2ccccc21)N(C)C` (configuration not stated), the GI50 in the experiment with CAKI-1, in the experiment on UACC-257, in the experiment on EKVX, in the experiment on SW-620, in the experiment on DU-145 and in the experiment with RPMI-8226 was > 100 µM (inactive) in each case. In addition, the GI50 in the experiment with IGROV-1, in the experiment with TK-10, in the experiment on OVCAR-3, in the experiment with CCRF-CEM, with HT-29 and with SR was > 100 µM (inactive) each time. Also, the GI50 in the experiment on MDA-MB-231, in the experiment on PC-3 and in the experiment with SF-295 was > 100 µM (inactive) each time.

As for `OCCN(C1=NCCN1)/[N+](=C/c1ccc(Cl)cc1)[CH-]c1ccc(Cl)cc1`, the GI50 with CAKI-1, in the experiment on UACC-257, in the experiment with EKVX, with OVCAR-4, in the experiment on SW-620 and in the experiment with A549 was > 100 µM (inactive) in each case. Further, the GI50 was > 100 µM (inactive) with IGROV-1; > 100 µM (inactive) with TK-10; > 100 µM (inactive) in the experiment with OVCAR-3; 61.8 µM (inactive) in the experiment on CCRF-CEM; 94.8 µM (inactive) with HT-29; 99.1 µM (inactive) in the experiment on SR. Besides, the GI50 in the experiment with MDA-MB-231 was > 100 µM (inactive); with PC-3, 62.5 µM (inactive); in the experiment with SF-295, > 100 µM (inactive).

For `Cc1[nH]c2ccccc2c1C1=CC(=O)N(c2ccccc2)C1=O`, the GI50 is 6.22 µM (inactive) in the experiment with CAKI-1; 13.1 µM (inactive) with UACC-257; 16.8 µM (inactive) with EKVX; 5.38 µM (inactive) with SW-620; 4.74 µM (inactive) in the experiment with DU-145; 22.5 µM (inactive) with A549. Besides, the GI50 in the experiment with RPMI-8226 is 11.3 µM (inactive); with IGROV-1 it was 32.1 µM (inactive); with TK-10 it was 11.1 µM (inactive); in the experiment on HOP-92 it was 7.74 µM (inactive); with OVCAR-3, 9.53 µM (inactive); with CCRF-CEM, 8.45 µM (inactive). Also, the GI50 with HT-29 is 5.58 µM (inactive); in the experiment with MDA-MB-231, 28.2 µM (inactive); in the experiment with PC-3, 11.9 µM (inactive); with SF-295 it was 26.7 µM (inactive).

For `O=C1CSc2nc3ccccc3n2/C=N\N1`, the GI50 in the experiment with CAKI-1, with UACC-257, in the experiment on OVCAR-4, in the experiment with SW-620, in the experiment on DU-145 and with A549 was > 100 µM (inactive) throughout. Moreover, the GI50 in the experiment with RPMI-8226, with TK-10, in the experiment with HOP-92, in the experiment on CCRF-CEM, in the experiment with HT-29 and in the experiment on SR was > 100 µM (inactive) in each case. Besides, the GI50 in the experiment with MDA-MB-231, with PC-3 and with SF-295 was > 100 µM (inactive) in each case.

For `CN1c2ccccc2N(C(=O)c2ccccc2)C(CC(=O)O)c2cccn21` (configuration not stated), the GI50 with CAKI-1, in the experiment on UACC-257, with EKVX, in the experiment on OVCAR-4, with SW-620 and in the experiment with A549 was > 100 µM (inactive) each time. Also, the GI50 is > 100 µM (inactive) in the experiment with RPMI-8226; > 100 µM (inactive) in the experiment with IGROV-1; > 100 µM (inactive) in the experiment with TK-10; 19.4 µM (inactive) in the experiment with HOP-92; > 100 µM (inactive) with OVCAR-3; > 100 µM (inactive) in the experiment with CCRF-CEM. Besides, the GI50 in the experiment with HT-29 and in the experiment with SF-295 was > 100 µM (inactive) in each case.

For the compound `CN(C)c1ccc(/C=N/NC(=O)c2cnc3ccccc3c2)cc1`, the GI50 is > 100 µM (inactive) in the experiment with CAKI-1; > 100 µM (inactive) with UACC-257; 58.6 µM (inactive) with EKVX; > 100 µM (inactive) with OVCAR-4; > 100 µM (inactive) in the experiment with SW-620; 59.3 µM (inactive) in the experiment on DU-145. The GI50 in the experiment with A549 is > 100 µM (inactive); with RPMI-8226, > 100 µM (inactive); in the experiment on IGROV-1, 51.1 µM (inactive); in the experiment on TK-10 it was 26.3 µM (inactive); with HOP-92, 49.4 µM (inactive); with OVCAR-3, > 100 µM (inactive). Also, the GI50 in the experiment on MDA-MB-231 was 37.8 µM (inactive); with PC-3, > 100 µM (inactive); with SF-295 it was 71.4 µM (inactive).

As for `COc1ccc2[nH]cc(CCNC(=O)[C@H](Cc3ccc(O)cc3)NC(=O)[C@@H](NCC(F)(F)F)C(C)C)c2c1`, the GI50 is 62.5 µM (inactive) in the experiment on UACC-257; 99.8 µM (inactive) in the experiment with EKVX; 40 µM (inactive) in the experiment with OVCAR-4; > 100 µM (inactive) with SW-620; > 100 µM (inactive) with DU-145; 45.7 µM (inactive) with A549. Further, the GI50 is 34.4 µM (inactive) in the experiment with RPMI-8226; 97.7 µM (inactive) in the experiment with IGROV-1; > 100 µM (inactive) in the experiment with TK-10; 75.5 µM (inactive) in the experiment on HOP-92; 20.1 µM (inactive) in the experiment with OVCAR-3; 39.7 µM (inactive) in the experiment on CCRF-CEM. Moreover, the GI50 in the experiment on HT-29 was 52.5 µM (inactive); in the experiment on SR it was > 100 µM (inactive); in the experiment with MDA-MB-231, > 100 µM (inactive); with PC-3, > 100 µM (inactive); in the experiment on SF-295, 39.7 µM (inactive).

Take `Cc1ccc(NC(=O)c2cc3ccccc3c(/N=N\c3ccccc3O)c2O)c(C)c1`: the GI50 is 1.19 µM (inactive) in the experiment on CAKI-1; 4.75 µM (inactive) with UACC-257; 2.75 µM (inactive) with EKVX; 1.63 µM (inactive) in the experiment with OVCAR-4; 1.69 µM (inactive) in the experiment with SW-620; 2.25 µM (inactive) in the experiment on A549. For the same compound, the GI50 with RPMI-8226 was 1.78 µM (inactive); with IGROV-1, 1.14 µM (inactive); in the experiment with TK-10, 5.31 µM (inactive); in the experiment with HOP-92, 2.95 µM (inactive); in the experiment with OVCAR-3, 0.37 µM (active); in the experiment with CCRF-CEM, 0.818 µM (active). For the same compound, the GI50 in the experiment on HT-29 was 3.13 µM (inactive); with SR, 0.373 µM (active); with MDA-MB-231, 2 µM (inactive); in the experiment on PC-3, 1.63 µM (inactive); in the experiment on SF-295, 0.863 µM (active).

For the compound `OCC1C2CCC3(OCCO3)C12` (configuration not stated), the GI50 in the experiment on CAKI-1, in the experiment with UACC-257, in the experiment with EKVX, in the experiment on OVCAR-4, in the experiment with SW-620 and in the experiment with DU-145 was > 100 µM (inactive) each time. Also, the GI50 with A549, with RPMI-8226, in the experiment with IGROV-1, in the experiment on TK-10, in the experiment with HOP-92 and with OVCAR-3 was > 100 µM (inactive) throughout. The GI50 in the experiment on CCRF-CEM, in the experiment on HT-29, in the experiment with SR, in the experiment with MDA-MB-231, in the experiment with PC-3 and in the experiment with SF-295 was > 100 µM (inactive) in each case.
